From ChEMBL document CHEMBL1129456, “Synthesis and evaluation of two positron-labeled nitric oxide synthase inhibitors, S-[11C]methylisothiourea and S-(2-[18F]fluoroethyl)isothiourea, as potential positron emission tomography tracers” (J Med Chem, 1996) come the findings set out here.

Experiment [1] addresses Nitric oxide synthase, inducible (Homo sapiens, UniProt P35228). Kind of experiment: The compound was evaluated for the inhibitory potencies using human Inducible nitric oxide synthase (hiNOS).
Experiment [2] addresses T1, Nitric oxide synthase 3 (Homo sapiens, UniProt P29474).
T1 sequence (P29474 whole entry): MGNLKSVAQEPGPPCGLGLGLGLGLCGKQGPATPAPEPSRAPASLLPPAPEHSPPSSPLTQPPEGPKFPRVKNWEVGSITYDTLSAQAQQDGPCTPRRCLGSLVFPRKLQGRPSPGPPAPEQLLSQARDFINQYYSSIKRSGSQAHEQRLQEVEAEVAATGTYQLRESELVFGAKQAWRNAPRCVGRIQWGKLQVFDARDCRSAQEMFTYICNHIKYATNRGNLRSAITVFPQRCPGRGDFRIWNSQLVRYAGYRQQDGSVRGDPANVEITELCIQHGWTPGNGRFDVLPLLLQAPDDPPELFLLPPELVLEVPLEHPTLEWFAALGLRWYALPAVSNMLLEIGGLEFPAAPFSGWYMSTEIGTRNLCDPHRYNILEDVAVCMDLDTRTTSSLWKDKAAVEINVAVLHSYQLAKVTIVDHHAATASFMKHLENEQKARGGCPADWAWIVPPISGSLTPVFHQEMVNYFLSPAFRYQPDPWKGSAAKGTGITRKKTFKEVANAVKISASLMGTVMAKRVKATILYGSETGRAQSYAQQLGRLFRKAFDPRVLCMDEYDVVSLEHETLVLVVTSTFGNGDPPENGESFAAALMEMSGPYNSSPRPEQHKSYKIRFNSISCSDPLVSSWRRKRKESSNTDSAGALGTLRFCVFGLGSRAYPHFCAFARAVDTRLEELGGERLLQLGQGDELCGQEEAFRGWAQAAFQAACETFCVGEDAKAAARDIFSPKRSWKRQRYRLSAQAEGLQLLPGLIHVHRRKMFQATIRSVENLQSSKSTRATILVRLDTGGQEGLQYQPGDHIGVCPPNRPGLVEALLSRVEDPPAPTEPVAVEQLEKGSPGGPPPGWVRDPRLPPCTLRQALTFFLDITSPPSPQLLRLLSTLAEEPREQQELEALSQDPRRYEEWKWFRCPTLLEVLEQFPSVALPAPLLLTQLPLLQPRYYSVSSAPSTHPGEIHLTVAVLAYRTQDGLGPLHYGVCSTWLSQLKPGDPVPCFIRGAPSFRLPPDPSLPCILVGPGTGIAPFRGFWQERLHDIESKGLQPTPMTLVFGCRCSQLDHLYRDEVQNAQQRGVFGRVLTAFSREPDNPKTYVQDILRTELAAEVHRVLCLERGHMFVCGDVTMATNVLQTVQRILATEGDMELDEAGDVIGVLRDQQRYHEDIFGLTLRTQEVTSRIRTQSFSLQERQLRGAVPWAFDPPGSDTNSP
Kind of experiment: The compound was evaluated for the inhibitory potencies using human Endothelial nitric oxide synthase.

The species entered for experiment [3] is Rattus norvegicus. Nature of the experiment: Maximum enzyme concentration from lipopolysaccharide treated rat liver. The format is functional.
Experiment [4] concerns the target T2, Nitric oxide synthase, inducible (Mus musculus, UniProt P29477).
T2 sequence (P29477 whole entry): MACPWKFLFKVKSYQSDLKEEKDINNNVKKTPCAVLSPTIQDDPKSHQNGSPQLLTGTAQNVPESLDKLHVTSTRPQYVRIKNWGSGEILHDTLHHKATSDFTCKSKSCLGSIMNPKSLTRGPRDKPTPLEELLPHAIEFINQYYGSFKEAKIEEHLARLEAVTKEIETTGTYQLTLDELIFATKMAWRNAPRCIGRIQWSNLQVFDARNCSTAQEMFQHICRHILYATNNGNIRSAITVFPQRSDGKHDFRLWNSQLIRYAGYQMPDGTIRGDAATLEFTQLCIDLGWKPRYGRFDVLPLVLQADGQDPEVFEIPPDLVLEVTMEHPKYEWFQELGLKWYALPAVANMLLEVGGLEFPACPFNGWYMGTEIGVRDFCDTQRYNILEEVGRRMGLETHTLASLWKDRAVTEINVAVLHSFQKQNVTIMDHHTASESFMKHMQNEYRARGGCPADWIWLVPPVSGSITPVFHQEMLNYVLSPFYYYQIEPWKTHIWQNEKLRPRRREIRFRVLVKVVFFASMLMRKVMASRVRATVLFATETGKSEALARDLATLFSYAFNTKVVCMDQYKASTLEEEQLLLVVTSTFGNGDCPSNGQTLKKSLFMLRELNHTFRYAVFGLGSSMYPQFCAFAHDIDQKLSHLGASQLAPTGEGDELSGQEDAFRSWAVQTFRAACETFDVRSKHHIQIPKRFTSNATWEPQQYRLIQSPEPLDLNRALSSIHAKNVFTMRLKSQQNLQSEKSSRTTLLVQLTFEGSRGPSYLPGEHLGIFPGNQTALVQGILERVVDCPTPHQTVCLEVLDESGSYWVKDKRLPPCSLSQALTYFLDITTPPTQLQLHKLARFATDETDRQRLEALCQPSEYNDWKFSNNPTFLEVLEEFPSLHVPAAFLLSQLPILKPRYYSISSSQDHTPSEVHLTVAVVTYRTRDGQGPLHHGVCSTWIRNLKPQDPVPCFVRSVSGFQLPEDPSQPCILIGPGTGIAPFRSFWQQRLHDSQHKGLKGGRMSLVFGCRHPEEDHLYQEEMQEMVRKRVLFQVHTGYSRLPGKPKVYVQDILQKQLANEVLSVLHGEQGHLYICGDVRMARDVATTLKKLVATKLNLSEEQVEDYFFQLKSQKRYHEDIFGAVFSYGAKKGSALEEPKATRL
Kind of experiment: Binding affinity against mouse Inducible nitric oxide synthase (iNOS).

Nitric oxide synthase, inducible (Homo sapiens, UniProt P35228), sequence (P35228 whole entry): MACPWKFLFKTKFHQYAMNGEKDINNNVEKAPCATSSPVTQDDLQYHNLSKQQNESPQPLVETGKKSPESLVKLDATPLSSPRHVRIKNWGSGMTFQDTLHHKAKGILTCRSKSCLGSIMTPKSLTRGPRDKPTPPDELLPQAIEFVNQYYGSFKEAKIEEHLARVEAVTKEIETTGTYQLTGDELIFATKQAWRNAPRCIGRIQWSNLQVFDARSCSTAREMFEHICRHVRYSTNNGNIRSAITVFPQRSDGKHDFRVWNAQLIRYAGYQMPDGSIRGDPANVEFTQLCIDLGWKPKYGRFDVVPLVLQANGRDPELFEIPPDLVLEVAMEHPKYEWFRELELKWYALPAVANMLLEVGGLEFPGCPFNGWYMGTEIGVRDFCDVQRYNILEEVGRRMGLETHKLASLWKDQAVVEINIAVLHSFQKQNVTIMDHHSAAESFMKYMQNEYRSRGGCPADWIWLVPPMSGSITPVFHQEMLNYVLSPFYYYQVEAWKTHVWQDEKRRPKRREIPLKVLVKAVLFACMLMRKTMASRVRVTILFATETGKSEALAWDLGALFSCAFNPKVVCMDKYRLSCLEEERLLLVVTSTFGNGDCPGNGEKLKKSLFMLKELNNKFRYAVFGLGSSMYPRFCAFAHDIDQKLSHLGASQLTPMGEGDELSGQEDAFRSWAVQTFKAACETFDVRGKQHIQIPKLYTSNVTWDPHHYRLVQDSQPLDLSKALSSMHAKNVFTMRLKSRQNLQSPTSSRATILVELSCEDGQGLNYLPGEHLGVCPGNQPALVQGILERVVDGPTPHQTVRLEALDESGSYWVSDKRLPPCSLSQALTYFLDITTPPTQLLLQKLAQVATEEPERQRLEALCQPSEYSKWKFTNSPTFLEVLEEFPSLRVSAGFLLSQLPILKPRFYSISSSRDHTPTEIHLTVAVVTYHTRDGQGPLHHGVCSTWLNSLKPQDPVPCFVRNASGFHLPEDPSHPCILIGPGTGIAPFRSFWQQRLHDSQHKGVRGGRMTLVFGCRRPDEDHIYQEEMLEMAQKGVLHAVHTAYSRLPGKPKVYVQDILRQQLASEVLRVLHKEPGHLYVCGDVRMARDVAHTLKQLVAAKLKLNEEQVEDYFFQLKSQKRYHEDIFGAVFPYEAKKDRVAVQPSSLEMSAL

By IC50 is commonly meant the concentration at which inhibition is half-maximal. A low value points to greater potency in that assay. The term Ki denotes the dissociation constant of the complex between target and ligand, obtained from inhibition or displacement. Higher therefore signals lower affinity. For the molecule `CCSC(=N)N` [ETHYLISOTHIOUREA], the figures for the half-maximal inhibitory concentration (IC50) in experiment [1] and in experiment [2] were 160 nM and 1300 nM, respectively. For the same molecule, the Bmax in experiment [3] was 85 nM. In addition, in experiment [4], the Ki came out at 5.2 nM.
